According to US12582625B2, “Methods for treating neuroblastoma” (priority 2015, dated 2026):
Values joined by “and” are separate entries in the source; they are usually repeats but may differ in a detail not shown here. Equal entries are not always repeated. “Also recorded” adds a separate entry of the source.

Tests used:
[1] = NMTRC 002: DFMO serum pharmacokinetics in children with NB; details: for AUC(0-t) / Tmax / Cmax: human, serum
Procedure: Pharmacokinetic (PK) Analytical Method and Sample Collection. Patients were consented for all pharmacokinetic sampling and analysis. […] The extracted samples were injected into a liquid chromatograph equipped with an Atlantis Hilic Silica, 50×4.6 mm, 3 μm column. The mobile phase A was a mixture of Milli-Q type water with acetonitrile and ammonium acetate. The validated calibration range for this assay was from 50 to 100,000 ng/mL. […] Blood was not collected beyond 6 hours post dose as this trial was conducted on an outpatient basis, and this was judged to be an undue burden on patients.
Statistical Methods. […] Urinary polyamine levels were derived from duplicate measurements of individual samples. […] Fisher's Exact Test was used to assess the likelihood that increases in urinary polyamine levels were associated with disease progression. Friedman's test for repeated measures analysis of variance was used to assess changes in contents of individual urinary polyamines.
Samples were collected from patients prior to, and again at times 0.5, 1, 3, and 6 hours following drug administration on days 1 and 8 of the first cycle. […] Subsequent cycles commenced the day following the last day of the previous cycle.

[2] = system: refractory or relapsed neuroblastoma; assay: NMTRC 002: tumor response and progression free survival; type: in vivo, human; details: for PFS (days), individual patients: DFMO alone cycle 1, then with etoposide; for Status or Reason off study, individual patients: PF = progression free, PD = progressive disease
Procedure: Study Design and Treatment.
Tumor and clinical responses were monitored as secondary endpoints. Eighteen subjects were evaluated for efficacy. This study used the (RECIST) Response Evaluation Criteria measurements in Solid Tumor from the NCI (27) modified for pediatrics as well as MIBG or PET and bone marrow response. Tumor assessments/imaging studies were obtained at baseline>7 days from prior therapy and <21 days from the start of study therapy. These were repeated at the end of the first cycle and again after every other cycle.

[3] = system: tumors harboring Ki-ras mutations; details: AOM-treated rats, reduced from 90% (Singh et al., 1994); cited from earlier work

For `NCCCC(N)(C(=O)O)C(F)F` (centres unmarked) [DFMO, 2,5-diamino-2-(difluoromethyl) pentanoic acid], the AUC0-6 hrs ([1]; 500 mg/m^2 PO BID, Cycle 1) was 39.90 ± 24.16 (mcg/mL) × hrs, the AUC0-6 hrs ([1]; 750 mg/m^2 PO BID, Cycle 1) was 47.36 ± 18.57 (mcg/mL) × hrs and the AUC0-6 hrs ([1]; 750 mg/m^2 PO BID, Cycle 2 (with etoposide)) was 62.84 ± 39.47 (mcg/mL) × hrs. For the same compound, the AUC0-6 hrs ([1]; 1000 mg/m^2 PO BID, Cycle 1) was 60.05 ± 34.53 (mcg/mL) × hrs, the AUC0-6 hrs ([1]; 1000 mg/m^2 PO BID, Cycle 2 (with etoposide)) was 50.18 ± 32.57 (mcg/mL) × hrs and the AUC0-6 hrs ([1]; 1500 mg/m^2 PO BID, Cycle 1) was 108.38 ± 53.23 (mcg/mL) × hrs. For the same compound, the AUC0-6 hrs ([1]; 1500 mg/m^2 PO BID, Cycle 2 (with etoposide)) was 120.69 ± 31.22 (mcg/mL) × hrs, the “biologically effective doses of DFMO (serum concentration range)” value ([1]; from clinical benefit in this study and adult cancer prevention studies) was 50-150 μM and the AUC(0-t) ([1]; oral, 500 mg/m2) was 39000 ng·h/mL. For the same compound, the AUC(0-t) ([1]; oral, 1500 mg/m2) was 121000 ng·h/mL, the Tmax ([1]; oral, mean tmax, all dose groups) was 2.5 to 3.75 h and the Cmax ([1]; po, 500 mg/m2, Cmax mean ± SD, 500 mg/m^2 PO BID, Cycle 1) was 9540 ± 5360 ng/mL. It also gave a Tmax ([1]; po, 500 mg/m2, tmax, 500 mg/m^2 PO BID, Cycle 1) of 3.75 ± 1.39 h, a Cmax ([1]; po, 750 mg/m2, Cmax mean ± SD, 750 mg/m^2 PO BID, Cycle 1) of 11900 ± 5220 ng/mL and a Cmax ([1]; po, 750 mg/m2, Cmax mean ± SD, 750 mg/m^2 PO BID, Cycle 2 (with etoposide)) of 14200 ± 7920 ng/mL. For the same compound, the Tmax ([1]; po, 750 mg/m2, tmax, 750 mg/m^2 PO BID, Cycle 1) was 3.6 ± 1.26 h, the Tmax ([1]; po, 750 mg/m2, tmax, 750 mg/m^2 PO BID, Cycle 2 (with etoposide)) was 2.6 ± 0.89 h and the Cmax ([1]; po, 1000 mg/m2, Cmax mean ± SD, 1000 mg/m^2 PO BID, Cycle 1) was 14700 ± 9070 ng/mL. It also gave a Cmax ([1]; po, 1000 mg/m2, Cmax mean ± SD, 1000 mg/m^2 PO BID, Cycle 2 (with etoposide)) of 14300 ± 6180 ng/mL, a Tmax ([1]; po, 1000 mg/m2, tmax, 1000 mg/m^2 PO BID, Cycle 1) of 3.17 ± 1.6 h and a Tmax ([1]; po, 1000 mg/m2, tmax, 1000 mg/m^2 PO BID, Cycle 2 (with etoposide)) of 3 h. It also gave a Cmax ([1]; po, 1500 mg/m2, Cmax mean ± SD, 1500 mg/m^2 PO BID, Cycle 1) of 29000 ± 15000 ng/mL, a Cmax ([1]; po, 1500 mg/m2, Cmax mean ± SD, 1500 mg/m^2 PO BID, Cycle 2 (with etoposide)) of 30700 ± 8180 ng/mL and a Tmax ([1]; po, 1500 mg/m2, tmax, 1500 mg/m^2 PO BID, Cycle 1) of 2.88 ± 1.45 h. The Tmax ([1]; po, 1500 mg/m2, tmax, 1500 mg/m^2 PO BID, Cycle 2 (with etoposide)) was 2.5 ± 0.9 h, the “mean Cmax and AUC versus oral dose” value ([1]; in vivo, po) was “increased in a linear fashion” and the “Overall average serum DFMO concentration” value ([1]; patients receiving 500 mg/m^2) was 9.54 μg/mL and 52.24 μM. The “Overall average serum DFMO concentration” value ([1]; patients receiving 1500 mg/m^2) was 30.71 μg/mL and 168.10 μM, the “patients alive without progression of disease” value ([2]; 2-4.5 years after starting DFMO) was “three subjects remain alive without progression of disease; also recorded: Three patients remain alive without progression of disease” and the “subjects with best response of progressive disease” value ([2]; 18 evaluable subjects) was 5. The “subjects with best response of stable disease by RECIST” value ([2]; 18 evaluable subjects) was 12, the “patients with best response of PR” value ([2]; 18 evaluable subjects, MIBG evaluable disease only) was 1 and the “Best Response (CT/MIBG), individual patients” value ([2]; DFMO dose 500 mg/m^2 BID) was “SD/PR”. For the same compound, the “PFS (days), individual patients” value ([2]; DFMO dose 500 mg/m^2 BID) was 94 days and 1573 days and 1559 days, the “Status or Reason off study, individual patients” value ([2]; DFMO dose 500 mg/m^2 BID) was “Alive (PF)” and the “PFS (days), individual patients” value ([2]; DFMO dose 750 mg/m^2 BID) was 418 days and 103 days and 67 days and 57 days and 31 days. The “PFS (days), individual patients” value ([2]; DFMO dose 1000 mg/m^2 BID) was 239 days and 64 days and 59 days, the “Best Response (CT/MIBG), individual patients” value ([2]; DFMO dose 1500 mg/m^2 BID) was “SD/PR; also recorded: (CT Neg)/PR” and the “PFS (days), individual patients” value ([2]; DFMO dose 1500 mg/m^2 BID) was 663 days and 209 days and 136 days and 62 days (3×) and 21 days. The “Status or Reason off study, individual patients” value ([2]; DFMO dose 1500 mg/m^2 BID) was “Alive (PF) and 2nd Leukemia”, the “mean progression free survival (PFS)” value ([2]; NMTRC 002, all evaluable subjects) was 420 days and the PFS ([2]; ODC SNP rs2302615 genotype Any A) was 282.1 ± 499.6. It also gave a PFS ([2]; ODC SNP rs2302615 genotype GG) of 326.7 ± 501.6, a PFS ([2]; ODC SNP rs2302616 genotype Any T) of 498.0 ± 635.4 and a PFS ([2]; ODC SNP rs2302616 genotype GG) of 110.8 ± 119.1. The “median progression free survival (PFS)” value ([2]; all 18 evaluable subjects, 95% CI: 62-418 days (Saulnier Sholler et al., 2015)) was 80.5 days, the PFS ([2]; patients with GG at rs2302616) was 110 days and the PFS ([2]; patients with any minor T allele at rs2302616) was 498 days. For the same compound, the “response by PET scans” value ([2]; three subjects evaluated by PET) was “two had a complete response and one a partial response” and the “tumors harboring Ki-ras mutations” value [3] was 36%.
